Experimental findings from ChEMBL document CHEMBL1909046, “DrugMatrix in vitro pharmacology data” are described below.

The structures appear in SMILES notation.

Series [1] deals with Beta-2 adrenergic receptor (Homo sapiens, UniProt P07550). The series is described as follows: DRUGMATRIX: Adrenergic beta2 radioligand binding (ligand: [3H] CGP-12177). In kind it is cell membranes, CHO, Membrane. The note with it: Not Active = under 50% inhibition at 10 µM.
Series [2] concerns the target Vasopressin V1a receptor (Homo sapiens, UniProt P37288). In kind it is cell membranes, Membrane. The conditions noted are these: hek293. Note: in other assays of this panel Not Active means under 50% inhibition at 10 µM.
The target of series [3] is T1, C-X-C chemokine receptor type 2 (Homo sapiens, UniProt P25025). Note: in other assays of this panel Not Active means under 50% inhibition at 10 µM.
T1 sequence (P25025 whole entry): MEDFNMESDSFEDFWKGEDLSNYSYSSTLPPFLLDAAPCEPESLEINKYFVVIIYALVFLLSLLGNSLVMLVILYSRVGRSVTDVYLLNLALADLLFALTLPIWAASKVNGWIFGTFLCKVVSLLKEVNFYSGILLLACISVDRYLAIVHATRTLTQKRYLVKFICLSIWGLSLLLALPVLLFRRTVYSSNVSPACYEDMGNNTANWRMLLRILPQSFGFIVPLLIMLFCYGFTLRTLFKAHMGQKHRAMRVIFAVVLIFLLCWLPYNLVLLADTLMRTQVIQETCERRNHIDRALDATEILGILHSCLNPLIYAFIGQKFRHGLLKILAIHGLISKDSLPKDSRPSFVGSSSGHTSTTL
In kind it is cell membranes, Membrane. The conditions noted are these: cho-k1.

The target in series [4] is T2, Muscarinic acetylcholine receptor M4 (Homo sapiens, UniProt P08173). Note: in other assays of this panel Not Active means under 50% inhibition at 10 µM.
T2 sequence (P08173 whole entry): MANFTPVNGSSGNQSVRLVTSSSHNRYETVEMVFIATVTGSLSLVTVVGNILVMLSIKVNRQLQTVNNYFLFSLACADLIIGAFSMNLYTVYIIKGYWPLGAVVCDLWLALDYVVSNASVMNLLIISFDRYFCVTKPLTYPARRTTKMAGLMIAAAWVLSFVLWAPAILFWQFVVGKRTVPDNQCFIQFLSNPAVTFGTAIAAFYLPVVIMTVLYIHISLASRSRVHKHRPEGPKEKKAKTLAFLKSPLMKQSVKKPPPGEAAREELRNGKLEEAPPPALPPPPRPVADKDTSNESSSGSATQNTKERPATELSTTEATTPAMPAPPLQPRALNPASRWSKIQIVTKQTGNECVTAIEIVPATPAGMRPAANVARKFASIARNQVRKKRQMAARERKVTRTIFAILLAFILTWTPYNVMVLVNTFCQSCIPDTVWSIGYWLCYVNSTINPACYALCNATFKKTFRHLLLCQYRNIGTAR
In kind it is cell membranes, CHO-K1, Membrane.

Series [5] has as its target Protein kinase C alpha type (Homo sapiens, UniProt P17252). In kind it is cell-based. The note with it: sf9.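 Note: inhibition of PKCalpha kinase activity measured in an enzyme assay with histone as the phosphorylation substrate; in other assays of this panel Not Active means under 50% inhibition at 10 µM.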
Series [6] deals with Mitogen-activated protein kinase 1 (Homo sapiens, UniProt P28482). The series is described as follows: DRUGMATRIX: Protein Serine/Threonine Kinase, ERK2 enzyme inhibition (substrate: Myelin Basic Protein). The conditions noted are these: Not Active = under 50% inhibition at 10 µM. On the set-up: species or system Escherichia coli.
Sequence of Mitogen-activated protein kinase 1 (P28482 whole entry): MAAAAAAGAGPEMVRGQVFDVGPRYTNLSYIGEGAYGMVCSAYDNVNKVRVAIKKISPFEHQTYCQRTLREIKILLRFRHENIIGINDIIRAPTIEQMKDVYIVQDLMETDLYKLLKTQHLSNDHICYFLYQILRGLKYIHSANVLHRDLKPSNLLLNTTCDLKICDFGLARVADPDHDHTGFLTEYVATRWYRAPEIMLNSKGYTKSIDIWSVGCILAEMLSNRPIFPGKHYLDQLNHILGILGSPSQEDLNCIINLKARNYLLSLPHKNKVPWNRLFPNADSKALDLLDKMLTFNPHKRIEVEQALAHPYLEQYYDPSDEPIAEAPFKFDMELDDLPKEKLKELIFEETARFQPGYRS
The target of series [7] is Mitogen-activated protein kinase 14 (Homo sapiens, UniProt Q16539). More on the design: species or system Escherichia coli.
Sequence of Mitogen-activated protein kinase 14 (Q16539 whole entry): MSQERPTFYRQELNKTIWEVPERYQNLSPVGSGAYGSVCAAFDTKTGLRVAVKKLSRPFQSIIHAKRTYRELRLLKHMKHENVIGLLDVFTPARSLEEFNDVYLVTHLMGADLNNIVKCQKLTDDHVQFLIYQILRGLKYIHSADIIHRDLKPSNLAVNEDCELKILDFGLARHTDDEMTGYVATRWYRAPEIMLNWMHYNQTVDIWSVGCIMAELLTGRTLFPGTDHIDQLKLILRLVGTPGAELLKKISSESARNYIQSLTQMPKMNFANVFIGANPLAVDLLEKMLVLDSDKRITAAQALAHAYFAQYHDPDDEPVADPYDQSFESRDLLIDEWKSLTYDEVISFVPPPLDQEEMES
Series [8] has as its target T3, Cytochrome P450 2A6 (Homo sapiens, UniProt P11509). Note: in other assays of this panel Not Active means under 50% inhibition at 10 µM.
T3 sequence (P11509 whole entry): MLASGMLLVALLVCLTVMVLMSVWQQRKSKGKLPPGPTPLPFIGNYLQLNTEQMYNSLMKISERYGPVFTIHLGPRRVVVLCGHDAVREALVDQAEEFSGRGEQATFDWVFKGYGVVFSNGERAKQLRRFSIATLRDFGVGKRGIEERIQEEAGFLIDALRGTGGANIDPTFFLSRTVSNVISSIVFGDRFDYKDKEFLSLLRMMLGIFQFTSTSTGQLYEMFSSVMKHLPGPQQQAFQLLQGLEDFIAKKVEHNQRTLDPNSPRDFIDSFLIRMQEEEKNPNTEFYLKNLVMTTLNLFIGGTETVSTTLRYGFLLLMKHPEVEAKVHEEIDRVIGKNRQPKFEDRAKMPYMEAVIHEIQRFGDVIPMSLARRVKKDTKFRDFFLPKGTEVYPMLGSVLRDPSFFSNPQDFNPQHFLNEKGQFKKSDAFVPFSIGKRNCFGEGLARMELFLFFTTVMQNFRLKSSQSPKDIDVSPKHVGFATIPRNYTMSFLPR
The conditions noted are these: bti-tn-5b1-4.

Sequence of Beta-2 adrenergic receptor (P07550 whole entry): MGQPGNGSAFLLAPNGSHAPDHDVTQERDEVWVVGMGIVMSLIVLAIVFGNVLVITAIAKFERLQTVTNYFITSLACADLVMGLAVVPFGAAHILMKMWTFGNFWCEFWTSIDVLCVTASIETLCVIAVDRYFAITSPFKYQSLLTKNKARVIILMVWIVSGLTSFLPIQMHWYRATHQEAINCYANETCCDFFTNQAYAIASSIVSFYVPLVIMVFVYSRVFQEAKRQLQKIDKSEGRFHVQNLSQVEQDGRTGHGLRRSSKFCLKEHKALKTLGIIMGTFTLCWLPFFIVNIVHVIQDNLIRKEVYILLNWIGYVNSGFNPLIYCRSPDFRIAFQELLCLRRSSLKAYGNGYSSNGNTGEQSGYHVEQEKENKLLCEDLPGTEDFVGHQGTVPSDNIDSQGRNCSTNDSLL
Sequence of Vasopressin V1a receptor (P37288 whole entry): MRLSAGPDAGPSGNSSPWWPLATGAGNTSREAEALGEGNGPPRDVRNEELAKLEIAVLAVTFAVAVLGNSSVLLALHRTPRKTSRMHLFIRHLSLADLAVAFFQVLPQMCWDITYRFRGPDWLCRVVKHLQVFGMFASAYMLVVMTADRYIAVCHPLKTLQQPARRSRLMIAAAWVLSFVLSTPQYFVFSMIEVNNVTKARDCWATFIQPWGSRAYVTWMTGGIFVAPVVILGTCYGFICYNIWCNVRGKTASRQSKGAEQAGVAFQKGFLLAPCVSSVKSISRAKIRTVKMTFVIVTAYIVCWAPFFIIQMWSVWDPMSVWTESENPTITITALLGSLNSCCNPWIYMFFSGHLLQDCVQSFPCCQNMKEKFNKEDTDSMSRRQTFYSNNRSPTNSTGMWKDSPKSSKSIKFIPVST

As for `CCCCC(=O)N(Cc1ccc(-c2ccccc2-c2nnn[nH]2)cc1)[C@H](C(=O)O)C(C)C`, the IC50 entry in series [1] (cho), in series [2], in series [3], in series [4] (cho-k1), in series [5] and in series [6] was “Not Active” each time. Also, the IC50 result in series [7] and in series [8] was “Not Active” each time. Further, the inhibition constant Ki entry in series [8] is reported as “Not Active”.
Take `O=C(O)COc1ccc(C(=O)c2cccs2)c(Cl)c1Cl`: the concentration for half-maximal inhibition (IC50) entry in series [1] (cho), in series [2], in series [3], in series [4] (cho-k1), in series [5] and in series [6] was “Not Active” throughout. The IC50 result in series [7] and in series [8] was “Not Active” each time. Moreover, in series [8], the Ki result is “Not Active”.
`CN1[C@@H]2CC[C@H]1C[C@@H](OC(c1ccccc1)c1ccccc1)C2` [BENZTROPINE]: the IC50 result in series [1] (cho), in series [2], in series [3], in series [5], in series [6] and in series [7] was “Not Active” throughout. Besides, the concentration for half-maximal inhibition (IC50) result in series [8] is reported as “Not Active”. For the same molecule, the Ki result in series [8] was “Not Active”.
For the molecule `C[C@@](Cc1ccc(O)c(O)c1)(NN)C(=O)O.O` [CARBIDOPA], the 50% inhibitory concentration (IC50) entry in series [1] (cho), in series [2], in series [3], in series [4] (cho-k1), in series [5] and in series [6] was “Not Active” in each case. Besides, the half-maximal inhibitory concentration (IC50) result in series [7] and in series [8] was “Not Active” each time. The inhibition constant Ki result in series [8] was “Not Active”.
Regarding `CN1CCN(C2=Nc3cc(Cl)ccc3Nc3ccccc32)CC1` [CLOZAPINE], the 50% inhibitory concentration (IC50) entry in series [1] (cho), in series [2], in series [3], in series [5], in series [6] and in series [7] was “Not Active” each time. The IC50 result in series [8] is on record as “Not Active”. The Ki entry in series [8] is reported as “Not Active”.
On to `CC(C)NC[C@@H](O)COc1cccc2ccccc12` [DEXPROPRANOLOL], for which the half-maximal inhibitory concentration (IC50) result in series [2], in series [3], in series [4] (cho-k1), in series [5], in series [6] and in series [7] was “Not Active” each time. Moreover, the IC50 entry in series [8] is on record as “Not Active”. Further, the Ki entry in series [8] is “Not Active”.
Regarding `CC(C)NC[C@H](O)COc1cccc2ccccc12` [LEVOPROPRANOLOL], the IC50 result in series [2], in series [3], in series [4] (cho-k1), in series [5], in series [6] and in series [7] was “Not Active” each time. Also, the half-maximal inhibitory concentration (IC50) result in series [8] was “Not Active”. In addition, in series [8], the Ki result was “Not Active”.
On to `O=C(O)CCCCC1CCSS1` (stereo not drawn) [LIPOIC ACID, ALPHA], for which the IC50 entry in series [1] (cho), in series [2], in series [3], in series [4] (cho-k1), in series [5] and in series [6] was “Not Active” in each case. The concentration for half-maximal inhibition (IC50) result in series [7] and in series [8] was “Not Active” each time. Further, the Ki entry in series [8] was “Not Active”.
Turning to `CN(C)C(=O)C(CCN1CCC(O)(c2ccc(Cl)cc2)CC1)(c1ccccc1)c1ccccc1` [LOPERAMIDE], the IC50 in series [1] (read-out: IC50) was 3010 nM; in series [2] it was “Not Active”; in series [3], “Not Active”; in series [4] (cho-k1) it was “Not Active”; in series [5] it was “Not Active”; in series [6], “Not Active”. Besides, the half-maximal inhibitory concentration (IC50) entry in series [7] and in series [8] was “Not Active” in each case. The Ki in series [1] (read-out: Ki) was 2070 nM; in series [8], “Not Active”.
As for `Clc1ccc(COC(Cn2ccnc2)c2ccc(Cl)cc2Cl)c(Cl)c1` (centres undefined) [MICONAZOLE], the IC50 entry in series [1] (cho) was “Not Active”; in series [2], “Not Active”; in series [3] it was “Not Active”; in series [4] (read-out: IC50), 3200 nM; in series [5] it was “Not Active”; in series [6], “Not Active”. Also, the IC50 result in series [7] and in series [8] was “Not Active” throughout. Moreover, the results for the inhibition constant Ki in series [4] (read-out: Ki) and in series [8] were 446 nM and “Not Active”, respectively.
On to `Oc1ccc2c3c1O[C@H]1[C@@H](O)CC[C@@]4(O)[C@@H](C2)N(CC2CCC2)CC[C@]314` [NALBUPHINE], for which the half-maximal inhibitory concentration (IC50) entry in series [1] (cho), in series [2], in series [3], in series [4] (cho-k1), in series [5] and in series [6] was “Not Active” throughout. For the same molecule, the half-maximal inhibitory concentration (IC50) entry in series [7] is recorded as “Not Active”.
As to `C[C@]12C=CC(=O)C=C1CC[C@@H]1[C@@H]2C(=O)C[C@@]2(C)[C@H]1CC[C@]2(O)C(=O)CO` [PREDNISONE], the IC50 entry in series [1] (cho), in series [2], in series [3], in series [4] (cho-k1), in series [5] and in series [6] was “Not Active” throughout. Besides, the IC50 result in series [7] is given as “Not Active”.
Take `OCCOCCN1CCN(C2=Nc3ccccc3Sc3ccccc32)CC1` [QUETIAPINE]: the concentration for half-maximal inhibition (IC50) entry in series [1] (cho), in series [2], in series [3], in series [5], in series [6] and in series [7] was “Not Active” each time. Further, the half-maximal inhibitory concentration (IC50) result in series [8] is listed as “Not Active”. The inhibitory constant (Ki) entry in series [8] was “Not Active”.
With `COC(=O)[C@H]1[C@H]2C[C@@H]3c4[nH]c5cc(OC)ccc5c4CCN3C[C@H]2C[C@@H](OC(=O)c2cc(OC)c(OC)c(OC)c2)[C@@H]1OC` [RESERPINE], the IC50 entry in series [1] (cho), in series [2], in series [3], in series [4] (cho-k1), in series [5] and in series [6] was “Not Active” each time. Also, the IC50 entry in series [7] and in series [8] was “Not Active” throughout. In addition, in series [8], the Ki result is “Not Active”.
Take `O=C(O)c1ccccc1O` [SALICYLIC ACID]: the half-inhibitory concentration (IC50) result in series [1] (cho), in series [2], in series [3], in series [4] (cho-k1), in series [5] and in series [6] was “Not Active” throughout. For the same molecule, the IC50 result in series [7] and in series [8] was “Not Active” throughout. In addition, in series [8], the inhibition constant Ki entry is “Not Active”.
For `C[S+]([O-])c1ccc(-c2nc(-c3ccncc3)c(-c3ccc(F)cc3)[nH]2)cc1` (centres undefined) [SB-203580], the IC50 entry in series [1] (cho), in series [2], in series [3], in series [4] (cho-k1), in series [5] and in series [8] was “Not Active” each time. Besides, the inhibition constant (Ki) entry in series [8] was “Not Active”.
As for `CC1CCC(NC(=O)N(CCCl)N=O)CC1` (centres undefined) [SEMUSTINE], the concentration for half-maximal inhibition (IC50) result in series [1] (cho), in series [2], in series [3], in series [4] (cho-k1), in series [5] and in series [6] was “Not Active” each time. Further, the half-inhibitory concentration (IC50) result in series [7] and in series [8] was “Not Active” throughout. In addition, the Ki result in series [8] is listed as “Not Active”.

In general, IC50 refers to the concentration that gives 50% inhibition. The term Ki denotes the dissociation constant of the complex between target and ligand, obtained from inhibition or displacement.
